Laboratory results: patent publication US20250361241A1, “HPK1 INHIBITOR AND MEDICAL USE THEREOF” (Betta Pharmaceuticals Co., Ltd., priority 2022, published 2025)
Several values for one entry are separate records, joined by “and”; a condition that tells them apart may be missing. Equal entries are not always repeated.

Experiments:
HPK1 [1] = target: T1, HPK1 (Homo sapiens (Human), UniProt Q92918); assay: HPK1 enzyme activity detection (1 mM ATP system), ADP-Glo, Pharmacological Experiment 1; type: biochemical
T1 sequence (Q92918 whole entry, species assumed): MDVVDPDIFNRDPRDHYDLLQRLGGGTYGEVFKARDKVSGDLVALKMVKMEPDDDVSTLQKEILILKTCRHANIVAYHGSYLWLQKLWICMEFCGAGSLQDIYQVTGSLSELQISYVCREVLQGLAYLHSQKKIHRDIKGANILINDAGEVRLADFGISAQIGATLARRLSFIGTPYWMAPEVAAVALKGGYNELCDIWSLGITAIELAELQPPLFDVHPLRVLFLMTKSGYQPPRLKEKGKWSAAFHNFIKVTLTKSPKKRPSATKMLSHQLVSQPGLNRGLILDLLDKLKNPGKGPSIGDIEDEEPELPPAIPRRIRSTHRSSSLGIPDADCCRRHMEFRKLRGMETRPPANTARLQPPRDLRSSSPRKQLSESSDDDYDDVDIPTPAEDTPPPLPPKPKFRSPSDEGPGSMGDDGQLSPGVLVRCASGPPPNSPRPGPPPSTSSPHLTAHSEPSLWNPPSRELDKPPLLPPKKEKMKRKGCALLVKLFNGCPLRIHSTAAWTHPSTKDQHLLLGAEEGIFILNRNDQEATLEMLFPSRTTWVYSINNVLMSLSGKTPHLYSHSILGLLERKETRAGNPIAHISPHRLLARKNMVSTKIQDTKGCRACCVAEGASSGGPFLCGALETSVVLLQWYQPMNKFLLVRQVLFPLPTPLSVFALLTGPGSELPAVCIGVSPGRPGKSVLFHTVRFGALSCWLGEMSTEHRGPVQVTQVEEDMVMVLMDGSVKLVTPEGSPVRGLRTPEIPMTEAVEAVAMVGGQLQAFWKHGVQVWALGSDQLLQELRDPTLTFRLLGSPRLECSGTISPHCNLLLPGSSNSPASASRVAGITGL
Procedure: Pharmacological Experiment 1: HPK1 Enzyme Activity Detection (1 mM ATP System)
• (1) Take ADP-GloTMKinase Assay Kit (Promega, Cat. No. V9102) to prepare 4× kinase buffer. • (2) Compound gradient dilution: The compound to be tested is diluted 3-fold, and 11 gradient concentrations are set, and each concentration is set for duplicate well detection. Serial dilutions were made in a 384-well plate to the corresponding 100×final concentration solution, and then 0.1 μL was transferred to the 384-well reaction plate for testing using Echo. Transfer 0.1 μL of 100% DMSO to the smallest and largest wells. • (3) Prepare HPK1 enzyme working solution using 4× kinase buffer. • (4) Add 5 μL of HPK1 enzyme working solution to each well and 5 μL of 1× kinase buffer to the smallest well. Centrifuge at 1000 rpm for 1 min and incubate at 25° C. for 15 min. • (5) During the incubation period, prepare the substrate working solution using 4× kinase buffer. • (6) Add 5 μL of substrate working solution containing 1 mM ATP to each well of the reaction plate, centrifuge at 1000 rpm for 1 min, and incubate at 25° C. for 60 min. • (7) At the end of incubation, add 5 μL of ADP Glo reagent to each well. Centrifuge at 1000 rpm for 1 min and incubate at 25° C. for 60 min. • (8) Add 10 μL of detection solution to each well, centrifuge at 1000 rpm for 1 min, and incubate at 25° C. for 60 min. • (9) Read using EnVision.
Inhibition rate calculation formula:
[formula] • Vehicle: Reading value of DMSO control well • Blank: No enzyme well reading • Largest well: Reading value of DMSO control well • Minimum well: No enzyme well reading
The log value of the concentration was used as the X-axis and the percentage inhibition rate was used as the Y-axis. The “log (inhibitor) vs. response—variable slope” of the analysis software GraphPad Prism 5 was used to fit the dose-effect curve to obtain the IC 50 value of the compound's inhibition of kinase binding.
See Table 1 for the enzymatic IC 50 data of the example compounds on HPK1.

HPK1 [2] = target: T1, HPK1; assay: HPK1 enzyme activity detection (1 mM ATP system), ADP-Glo with MBP substrate, Pharmacological Experiment 2; type: biochemical
In short: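 Compound in DMSO preincubated with HPK1 for 15 min at 25 °C, then reaction started with ATP (1 mM system) and MBP substrate for 60 min at 25 °C. ADP formed quantified by ADP-Glo luminescence; IC50 derived from percentage inhibition.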

Jurkat cells = assay: Jurkat IL-2 secretion detection (anti-CD3/CD28 beads, ELISA); type: cell-based, human; settings: for Maximum induction factor: IL-2 secretion, Jurkat cells; for EC3x: concentration for IL-2 secretion of Jurkat cells to reach 3 times the baseline, 20 h
Procedure: Pharmacological Experiment 5: Jurkat IL-2 Secretion Detection
• (1) Take the cultured Jurkat cells, adjust the density to 1×10^6 cells/mL, and inoculate them in a flat-bottom […] plate (Jet Biofil, TCP011096), with 100 μL per well, • (2) Add 50 μL of the test compound to each well and incubate at 37° C. for 30 min; • (3) Take human anti-CD3/CD28 magnetic beads (Miltenyi, 130-091-441), wash once with RPMI-1640 complete medium, and adjust the density to 4×106 beads/mL for later use; • (4) After the compound incubation, 50 μL of anti-human CD3/CD28 magnetic beads were added to each well and cultured at 37° C. for 20 h, • (5) The cell culture supernatant was obtained and the IL-2 secretion was detected using the Human IL-2 DuoSet ELISA kit (R&D, DY008); • (6) The log value of the concentration was used as the X-axis and the IL-2 secretion was used as the Y-axis. The “log (agonist) vs. response-variable slope” equation of the analysis software GraphPad Prism 7 was used to fit the dose-effect curve, thereby obtaining the […] and the […]

[3] = system: human peripheral blood mononuclear cells; assay: Detection of IFN-γ secretion in human peripheral blood mononuclear cells (anti-CD3/CD28 beads, ELISA); type: cell-based; settings: for Maximum induction factor: IFN-γ secretion, human PBMC; for EC3x: concentration for IFN-γ secretion of human PBMC to reach 3 times the baseline, 3 days
Procedure: Pharmacological Experiment 4: Detection of IFN-γ Secretion in Human Peripheral Blood Monocytes
• (1) Take human peripheral blood mononuclear cells frozen in liquid nitrogen, thaw in a 37° C. water bath, add 5 mL of preheated RPMI-1640 complete medium (containing 10% fetal bovine serum and penicillin/streptomycin), centrifuge at 500 g for 10 minutes, and discard the supernatant; • (2) Resuspend the cells in RPMI-1640 complete medium, adjust the density to 5×10^6 cells/mL, inoculate in a low-adhesion 6-well plate (Corning, 3471), and culture at 37° C. for 2 days; • (3) Collect cultured human peripheral blood mononuclear cells, centrifuge at 500 g for 10 min, and discard the supernatant; • (4) Resuspend the cells in RPMI-1640 complete medium, adjust the density to 1×10^6 cells/mL, and inoculate them in a round-bottom 96-well plate (Jet Biofil, TCP-002-096), with 100 μL per well; • (5) Add 50 μL of the test compound to each well and incubate at 37° C. for 30 min; • (6) Take human anti-CD3/CD28 magnetic beads (Miltenyi, 130-091-441), wash once with RPMI-1640 complete medium, and adjust the density to 0.5×106 beads/mL for later use; • (7) After the compound incubation, 50 μL of anti-human CD3/CD28 magnetic beads were added to each well and cultured at 37° C. for 3 days, • (8) The cell culture supernatant was obtained and the IFN-γ secretion was detected using the Human IFN-gamma DuoSet ELISA kit (R&D, DY285B-05); • (9) The log value of concentration was used as the X-axis and the IFN-γ secretion amount was used as the Y-axis. The “log (agonist) vs. response−variable slope” equation of the analysis software GraphPad Prism 7 was used to fit the dose-effect curve, thereby obtaining the EC3x value and the maximum induction factor of the compound for the secretion of IFN-γ from human peripheral blood mononuclear cells to reach 3 times the baseline.

GLK = GLK (Homo sapiens (Human), UniProt Q8IVH8); assay: GLK kinase assay (1 mM ATP system), ADP-Glo; type: biochemical
Chain of GLK (Q8IVH8 whole entry, species assumed): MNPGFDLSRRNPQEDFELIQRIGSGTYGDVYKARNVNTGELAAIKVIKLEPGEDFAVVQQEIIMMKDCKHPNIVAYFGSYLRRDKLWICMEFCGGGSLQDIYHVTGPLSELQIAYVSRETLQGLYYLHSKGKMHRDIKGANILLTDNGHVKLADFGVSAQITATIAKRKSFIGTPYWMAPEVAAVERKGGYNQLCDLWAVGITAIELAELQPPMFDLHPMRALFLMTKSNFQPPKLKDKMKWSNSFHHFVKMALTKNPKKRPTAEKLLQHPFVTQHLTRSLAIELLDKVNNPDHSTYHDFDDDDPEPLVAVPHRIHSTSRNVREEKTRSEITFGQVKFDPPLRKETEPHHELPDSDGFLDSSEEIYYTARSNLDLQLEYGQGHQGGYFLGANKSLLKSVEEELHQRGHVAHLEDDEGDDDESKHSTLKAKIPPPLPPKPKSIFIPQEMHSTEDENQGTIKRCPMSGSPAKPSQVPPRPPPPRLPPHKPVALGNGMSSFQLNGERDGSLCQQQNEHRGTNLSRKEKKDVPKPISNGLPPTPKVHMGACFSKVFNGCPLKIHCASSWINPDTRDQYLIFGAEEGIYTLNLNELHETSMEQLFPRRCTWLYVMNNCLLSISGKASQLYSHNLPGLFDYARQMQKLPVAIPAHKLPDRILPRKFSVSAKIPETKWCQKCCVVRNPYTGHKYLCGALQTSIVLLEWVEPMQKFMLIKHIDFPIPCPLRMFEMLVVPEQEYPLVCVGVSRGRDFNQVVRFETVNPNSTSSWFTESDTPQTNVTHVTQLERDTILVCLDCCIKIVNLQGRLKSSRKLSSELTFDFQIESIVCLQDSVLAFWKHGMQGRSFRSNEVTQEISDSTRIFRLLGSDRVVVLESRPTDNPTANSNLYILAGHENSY
In short: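 GLK kinase reaction with 1 mM ATP and MBP substrate ran 60 min at 25 °C after 15 min preincubation of enzyme with compound. ADP formed was detected by ADP-Glo luminescence; percent inhibition used to derive IC50.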

[4] = PK study of compound in dogs; type: in vivo; settings: Beagle dog, PO 5 mg/kg, DMSO/Solutol/saline
Procedure: Pharmacological Experiment 6: PK Study of Compound in Dogs The compound was mixed with a solvent of saline or 10% DMSO/5% Solutol/85% saline or 10% DMSO/10% Solutol/80% saline (specific solvents are shown in the table below), vortexed and sonicated to prepare a clear oral solution. […] The drug concentration was analyzed by LC-MS/MS method, and the pharmacokinetic parameters were calculated using Phoenix WinNolin software (Pharsight, USA).

SMILES | IC50 (HPK1 [2]) [nM] | Maximum induction factor [3] | EC3x [3] | IC50 (GLK) [nM] | also measured
CN(C)C1CCC2(CCOCC2)c2ccc(Nc3ccc(-c4cnc5cc(F)ccn45)c4c3C(=O)NC4)cc21 (centres unmarked) [Compound 1] |  |  |  |  | IC50 (HPK1 [1]): 61.2 nM
CN(C)C1CC2(CCOCC2)c2ccc(Nc3ccc(-c4cnc5cc(F)ccn45)c4c3C(=O)NC4)cc21 (centres unmarked) [Compound 9] |  |  |  |  | IC50 (HPK1 [1]): 205 nM
Cc1cc(Nc2cnc(-c3ccnc4c3ccn4C)c3c2C(=O)NC3)cc2c1C1(CCOCC1)CN(C)C2 [Compound 14] |  |  |  |  | IC50 (HPK1 [1]): 54.8 nM
Cc1cc(Nc2ccc(-c3cnc4cc(F)ccn34)c3c2C(=O)NC3)cc2c1C1(CCOCC1)CN(C)C2 [Compound 15] |  |  |  |  | IC50 (HPK1 [1]): 6.14 nM
Cc1cc(Nc2ccc(-c3cnc4cc(F)ccn34)c3c2C(=O)NC3)cc2c1C1(CC1)CN(C)C2 [Compound 16] |  |  |  |  | IC50 (HPK1 [1]): 20.6 nM
O=C1NCc2c(-c3cnc4cc(F)ccn34)ccc(Nc3ccc4c(n3)C(N3CCCC3)CC43CCOCC3)c21 (centres unmarked) [Compound 40, 4-(7-FLUOROIMIDAZO[1,2-A]PYRIDIN-3-YL)-7-((7-(PYRROLIDIN-1-YL)-2′,3′,5′,6,6′,7-HEXAHYDROSPIRO[B]PYRIDIN-5,4′-PYRAN]-2-YL)AMINO)ISOINDOLIN-1-ONE] | 4.8 |  |  |  | Maximum induction factor (Jurkat cells): 11.5; EC3x (Jurkat cells): 163 nM
O=C1NCc2c(-c3cnc4cc(F)ccn34)ccc(Nc3ccc4c(n3)C(N3CC[C@@H](F)C3)CC43CCOCC3)c21 (stereo partly drawn) [Compound 71, 4-(7-FLUOROIMIDAZOLO[1,2-A]PYRIDIN-3-YL)-7-((7-((R)-3-FLUOROPYRROLIDIN-1-YL)-2′,3′,5′,6,6′,7-HEXA HYDROSPIRO[CYCLOPENTYL[B]PYRIDIN-5,4′-PYRAN]-2-YL)AMINO)ISOINDOL-1-ONE] | 3.27 | 16.6 | 76 nM | 293 | 
O=C1NCc2c(-c3cnc4cc(F)ccn34)ccc(Nc3ccc4c(n3)C(N3CC[C@H](F)C3)CC43CCOCC3)c21 (some centres unmarked) [Compound 75] | 2.78 | 8.3 and 10.5 | 64 nM and 119 nM | 273 | 
O=C1NCc2c(-c3cnc4cc(Cl)ccn34)ccc(Nc3ccc4c(n3)C(N3CCCC3)CC43CCOCC3)c21 (centres unmarked) [Compound 103] | 4.67 | 5.3 | 123 nM | 291 | 
CC(C)NC1CC2(CCOCC2)c2ccc(Nc3ccc(-c4cnc5cc(F)ccn45)c4c3C(=O)NC4)nc21 (centres unmarked) [Compound 104] | 3.49 |  |  | 552 | Maximum induction factor (Jurkat cells): 8.3; EC3x (Jurkat cells): 172 nM
O=C1NCc2c(-c3cnc4cc(F)ccn34)ccc(Nc3ccc4c(n3)C(NC3CCOC3)CC43CCOCC3)c21 (centres unmarked) [Compound 107] | 3.55 | 8.8 | 296 nM | 1200 | 
O=C1NCc2c(-c3cnc4cc(F)ccn34)ccc(Nc3ccc4c(n3)C(NC3CCOCC3)CC43CCOCC3)c21 (centres unmarked) [Compound 108] | 3.29 |  |  | 1050 | Maximum induction factor (Jurkat cells): 8.4; EC3x (Jurkat cells): 448 nM
Cc1ccn2c(-c3ccc(Nc4ccc5c(n4)CCCC54CCOCC4)c4c3CNC4=O)cnc2c1 [Compound 121] | 3.35 | 19.4 | 140 nM | 679 | 
O=C1NCc2c(-c3cnc4cc(Cl)ccn34)ccc(Nc3ccc4c(n3)CCCC43CCOCC3)c21 [Compound 122] | 3.21 | 16.2 | 56 nM | 455 | 
O=C1NCc2c(-c3cnc4cc(OC(F)F)ccn34)ccc(Nc3ccc4c(n3)CNCC43CCOCC3)c21 [Compound 123] | 12.1 | 26.8 | 214 nM | 896 | 
O=C1NCc2c(-c3cnc4cc(F)ccn34)ccc(Nc3ccc4c(n3)CCCC43CCC3)c21 [Compound 125] | 11.1 | 20.2 | 173 nM | 1200 | 
O=C1NCc2c(-c3cnc4cc(F)ccn34)ccc(Nc3ccc4c(n3)CCCC43CCCC3)c21 [Compound 127] | 5.23 | 19.1 | 74.6 nM | 767 | 
CN(C)C1CC2(CCOC2)c2ccc(Nc3ccc(-c4cnc5cc(Cl)ccn45)c4c3C(=O)NC4)nc21 (centres unmarked) [Compound 151] | 6.34 | 6.5 | 53 nM | 970 | 
CN(C)[C@@H]1CC2(CCOCC2)c2ccc(Nc3ccc(-c4cnc5cc(OC(F)F)ccn45)c4c3C(=O)NC4)nc21 [Compound 158A, (R)-4-(7-(DIFLUOROMETHOXY)IMIDAZOL 1,2-A]PYRIDIN-3-YL)-7-((7-DIMETHYLAMINO)-2′,3′,5′,6,6′,7-HEXAHYDROSPIRO[CYCLOPENTADIENYL[B]PYRIDINE-54′-PYRAN]-2-YL)AMINO)ISOINDOLIN-1-ONE] | 3 | 10.8 | 167 nM | 206 | Bioavailability F % [4]: 43%; PO Plasma AUC [4]: 2704 ng·h/mL; T1/2 [4]: 6.06 h
Cc1ccn2c(-c3ccc(Nc4ccc5c(n4)C(N(C)C)CC54CCOCC4)c4c3CNC4=O)cnc2c1 (centres unmarked) [Compound 161] | 3.57 | 6.4 | 67 nM | 311 | 
CN(C)C1CC2(CCOCC2)c2ccc(Nc3ccc(-c4cnc5cc(C6CC6)ccn45)c4c3C(=O)NC4)nc21 (centres unmarked) [Compound 164, 4-(7-CYCLOPROPYLIMIDAZO[1,2-A]PYRIDIN-3-YL)-7-((7-(DIMETHYLAMINO)-2′,3′,5′,6,6′,7-HEXAHYDROSPIRO[CYCLOPENTANE[B]PYRIDINE-5,4′-PYRAN]-2-YL)AMINO)ISOINDOL-1-ONE] | 10.6 | 9.2 | 458 nM | 105 | 
